Assay results as given in ChEMBL document CHEMBL1125942, “A potent, simple derivative of an analog of the CC-1065 alkylation subunit” (Bioorg Med Chem Lett, 1991).
In brackets after ≈: the same amount, converted by molar mass.

Tests used:
L1210 [1] = experiment: Compound was tested for relative inhibitory concentration required for 50% cell growth inhibition against L1210 mouse lymphocytic leukemia to untreated controls; format: functional
L1210 [2] = experiment: Concentration required for 50% cell growth inhibition against L1210 mouse lymphocytic leukemia; format: functional, cell-based

Structure (SMILES) | Relative IC50 (L1210 [1]) | IC50 (L1210 [2]) [ng/mL]
OC1=CC2=NCC3CC23c2ccccc21 (racemic) | 0.0005 | 2000 (≈ 10100 nM)
CC(C)(C)OC(=O)NNC(=O)N1CC(CCl)c2c1cc(O)c1ccccc21 (racemic) | 0.01 | 100 (≈ 255 nM)
CC(C)(C)OC(=O)N1CC2CC23C1=CC(=O)c1ccccc13 (racemic) | 0.02 | 50 (≈ 168 nM)
Cl.NNC(=O)N1CC(CCl)c2c1cc(O)c1ccccc21 (racemic) | 1 | 1
COc1c(O)c2c(c3cc(C(=O)N4CCc5c4c(O)c(OC)c4[nH]c(C(=O)N6C[C@H]7C[C@@]78C6=CC(=O)c6[nH]cc(C)c68)cc54)[nH]c13)CCN2C(N)=O [(+)-CC-1065] | 100 | 0.01 (≈ 0.0142 nM)
